Earlier results on two compounds are cited in patent publication US6620425B1, “Food supplements and methods comprising lipoic acid and creatine” (Muscletech Research and Development Inc., priority 1998, dated 2003).

For data set [1] the following is noted: insulin-sensitive individuals.

As for `O=C(O)CCCCC1CCSS1` (stereo not drawn) [lipoic acid, 6,8-dithio octanoic acid], the “increase of the metabolic clearance rate of glucose” value (in diabetics) is given as 50%. Besides, the “the body's utilization of blood sugar” value (in type II diabetics) is recorded as “significantly increase”.

As to chromium, the “improvement of glucose tolerance” value in data set [1] is on record as “up to 50%”.
